Measured values reported in the NIST ThermoML archive (doi:10.1021/je034208m).
Where “and” joins values, the source holds several entries; their conditions need not be identical. Identical values can stand only once. Numbers after ± are expanded uncertainties.

Columns and labels:
[1] = 101.33 kPa, Liquid; for speed of sound: Sing-around technique in a fixed-path interferometer
[2] = xn = mol fraction of the nth substance listed; details: 101.33 kPa, Liquid, x2 = 0; for speed of sound: Sing-around technique in a fixed-path interferometer

CCCCCCCCCC [decane]
mass density ([1]; 293.15 K): 729.89 ± 0.8 kg/m3
viscosity ([1]; 293.15 K): 0.911 ± 0.016 mPa·s
speed of sound ([1]; 293.15 K): 1254 ± 1 m/s
mass density ([1]; 298.15 K): 726.12 ± 0.8 kg/m3
viscosity ([1]; 298.15 K): 0.845 ± 0.015 mPa·s
speed of sound ([1]; 298.15 K): 1235 ± 1 m/s
mass density ([1]; 303.15 K): 722.33 ± 0.81 kg/m3
viscosity ([1]; 303.15 K): 0.787 ± 0.014 mPa·s
speed of sound ([1]; 303.15 K): 1215 ± 1 m/s

CCCCCCCCCC [decane] + CCCC(C)O
speed of sound ([2]; 293.15 K): 1254 ± 1 m/s
mass density ([2]; 293.15 K): 729.89 ± 0.8 kg/m3
viscosity ([2]; 293.15 K): 0.911 ± 0.016 mPa·s
speed of sound ([2]; 298.15 K): 1235 ± 1 m/s
mass density ([2]; 298.15 K): 726.12 ± 0.8 kg/m3
viscosity ([2]; 298.15 K): 0.845 ± 0.015 mPa·s
speed of sound ([2]; 303.15 K): 1215 ± 1 m/s
mass density ([2]; 303.15 K): 722.33 ± 0.81 kg/m3
viscosity ([2]; 303.15 K): 0.787 ± 0.014 mPa·s

CCCCCCCCCCCC [dodecane]
mass density ([1]; 293.15 K): 748.54 ± 0.77 kg/m3
viscosity ([1]; 293.15 K): 1.454 ± 0.024 mPa·s
speed of sound ([1]; 293.15 K): 1297 ± 1 m/s
mass density ([1]; 298.15 K): 744.9 ± 0.77 kg/m3
viscosity ([1]; 298.15 K): 1.327 ± 0.022 mPa·s
speed of sound ([1]; 298.15 K): 1278 ± 1 m/s
mass density ([1]; 303.15 K): 741.27 ± 0.78 kg/m3
viscosity ([1]; 303.15 K): 1.219 ± 0.02 mPa·s
speed of sound ([1]; 303.15 K): 1259 ± 1 m/s

CCCCCCCCCCCC [dodecane] + CCCC(C)O
speed of sound ([2]; 293.15 K): 1297 ± 1 m/s
mass density ([2]; 293.15 K): 748.54 ± 0.77 kg/m3
viscosity ([2]; 293.15 K): 1.454 ± 0.024 mPa·s
speed of sound ([2]; 298.15 K): 1278 ± 1 m/s
mass density ([2]; 298.15 K): 744.9 ± 0.77 kg/m3
viscosity ([2]; 298.15 K): 1.327 ± 0.022 mPa·s
speed of sound ([2]; 303.15 K): 1259 ± 1 m/s
mass density ([2]; 303.15 K): 741.27 ± 0.78 kg/m3
viscosity ([2]; 303.15 K): 1.219 ± 0.02 mPa·s

CCCCCCCC [octane]
mass density ([1]; 293.15 K): 702.57 ± 0.78 kg/m3
viscosity ([1]; 293.15 K): 0.538 ± 0.01 mPa·s
speed of sound ([1]; 293.15 K): 1193 ± 1 m/s
mass density ([1]; 298.15 K): 698.54 ± 0.79 kg/m3
viscosity ([1]; 298.15 K): 0.506 ± 0.009 mPa·s
speed of sound ([1]; 298.15 K): 1173 ± 1 m/s
mass density ([1]; 303.15 K): 694.49 ± 0.8 kg/m3
viscosity ([1]; 303.15 K): 0.478 ± 0.009 mPa·s
speed of sound ([1]; 303.15 K): 1152 ± 1 m/s

CCCCCCCC [octane] + CCCC(C)O
speed of sound ([2]; 293.15 K): 1193 ± 1 m/s
mass density ([2]; 293.15 K): 702.57 ± 0.78 kg/m3
viscosity ([2]; 293.15 K): 0.538 ± 0.01 mPa·s
speed of sound ([2]; 298.15 K): 1173 ± 1 m/s
mass density ([2]; 298.15 K): 698.54 ± 0.79 kg/m3
viscosity ([2]; 298.15 K): 0.506 ± 0.009 mPa·s
speed of sound ([2]; 303.15 K): 1152 ± 1 m/s
mass density ([2]; 303.15 K): 694.49 ± 0.8 kg/m3
viscosity ([2]; 303.15 K): 0.478 ± 0.009 mPa·s

CCCC(C)O (stereo not drawn) [pentan-2-ol]
mass density ([1]; 293.15 K): 809.04 ± 0.99 kg/m3
viscosity ([1]; 293.15 K): 4.001 ± 0.075 mPa·s
speed of sound ([1]; 293.15 K): 1250 ± 2 m/s
mass density ([1]; 298.15 K): 805.01 ± 0.99 kg/m3 and 805 ± 0.99 kg/m3
viscosity ([1]; 298.15 K): 3.273 ± 0.063 mPa·s
speed of sound ([1]; 298.15 K): 1232 ± 2 m/s
mass density ([1]; 303.15 K): 800.9 ± 0.99 kg/m3
viscosity ([1]; 303.15 K): 2.708 ± 0.053 mPa·s
speed of sound ([1]; 303.15 K): 1214 ± 2 m/s
